The text below walks through data of patent US8481526B2, “Fluoroquinolone carboxylic acid molecular crystals” (Bausch & Lomb Incorporated, priority 2009, dated 2013).

Molecules are shown by their SMILES. Values after ≈ are worked out from the molar mass of the structure shown. Like-named read-outs stand apart in the source and are kept apart here.

Common to all, as to format: physicochemical
Data set [1] is described as follows: Moisture sorption analysis (VTI moisture sorption balance). To be noted: 25° C. The protocol: Moisture uptake and loss was monitored as a function of relative humidity using a VTI, moisture sorption balance. A 30-40 mg sample was loaded into a tared glass sample holder. The initial weight of the sample was accurately recorded. The sample was then dried under a steady stream of nitrogen for 2 hours at 40° C. After initial drying, the sample mass was equilibrated with dry nitrogen at 25° C. and the sample was exposed to progressive stepwise increases in humidity under controlled conditions. The sample was equilibrated for two hours at each new relative humidity. The moisture sorption behavior was monitored at 10% to 90% RH in 10% RH intervals and desorption was monitored from 90% to 10% RH. The % moisture gain/loss was recorded vs. the % RH.

Data set [2] can be described thus: Equilibrium solubility in various solvents (HPLC). Particulars: 22° C. ± 2° C., listed as Free base; for solubility: solubility of free base.
The nature of data set [3]: pH-dependence of solubility in distilled water (HPLC). Particulars: for solubility: distilled water, 22 °C, aqueous buffer, thermodynamic from solid. The protocol: (§1) A reversed phase gradient HPLC method was used for the analysis of besifloxacin solubility samples. The conditions are listed below:
(§2) The solubility of besifloxacin HCl, lot 050956330, was determined in distilled water as a function of pH by adjusting the pH with 1 N NaOH. Suspensions of the drug substance (about 50-150 mg in 10 mL distilled water) were equilibrated for 72-96 hours using a Burrell shaker. Laboratory temperature was 22±2° C. The pH of the suspensions was measured in the presence of excess solid prior to sampling. The samples were centrifuged in an Enprotech ISS-I13 centrifuge at 10,000 RPM for 15 minutes or filtered through 0.45[…] or PVDF filters. When samples were filtered, a volume of filtrate was discarded to allow saturation of filters. The supernatant or the filtrate was diluted as needed using the HPLC diluent prior to analysis. Sample concentration was monitored at varying time intervals to ensure complete equilibration. Also, sample concentration was reported as besifloxacin free base concentration rather than HCl salt.

The nature of data set [4]: Equilibrium solubility in various solvents (HPLC). To be noted: Water, 22° C. ± 2° C., listed as Free base. As for the experimental part: as §1
The solubility of besifloxacin HCl was evaluated in several organic solvents. An excess of drug substance was equilibrated with 10 mL of each solvent for 24-48 hours at room temperature (24±3° C.) using either a small magnetic stirrer or a Burrell Wrist Action shaker. Samples were inspected visually, and if needed, more drug substance was added until excess solid persisted after stirring. The samples were then filtered through 0.45 μm Nylon or PVDF filters or centrifuged at 10,000 RPM for 15 minutes. The filtrate or the supernatant was diluted as needed using the HPLC diluent and analyzed by HPLC. When solubility was greater than 100 mg/mL, no attempt was made to determine the equilibrium solubility and the compound was described as “freely soluble” as per the USP definition.
as §2

A short description of data set [5]: pKa and intrinsic solubility from fit of pH-solubility profile to Henderson-Hasselbach equation. To be noted: for solubility: aqueous buffer; for pKa: estimated from fit of pH-solubility profile. The source says:
To determine pKas that were consistent with observed solubility behavior, the pH dependent solubility was fitted to the following expression: S=So*(10^pKa1-pH+10^pH-pKa2+1) where S=solubility So=intrinsic solubility (total of zwitterionic and neutral species) pKa1=dissociation constant for the carboxylic acid moiety pKa2=dissociation constant for the primary ammonium ion moiety

As to `N[C@@H]1CCCCN(c2c(F)cc3c(=O)c(C(=O)O)cn(C4CC4)c3c2Cl)C1` [besifloxacin free base, (R)-(+)-7-(3-amino-2,3,4,5,6,7-hexahydro-1H-azepin-1-yl)-1-cyclopropyl-8-chloro-6-fluoro-1,4-dihydro-4-oxoquinoline-3-carboxylic acid], the “Hygroscopicity / moisture sorption behaviour” value in data set [1] (10% to 90% RH, listed as Besifloxacin free base) is given as “sorbed moisture at all RH conditions”. Further, the Moisture sorbed entry in data set [1] (90% RH) is listed as “up to 5 % w/w”. Besides, the USP def result in data set [2] (Acetonitrile) was “Insoluble”; in data set [2] (Ethanol), “Insoluble”; in data set [2] (Isopropanol), “Insoluble”; in data set [2] (Methanol), “Very slightly”; in data set [4], “Insoluble”. The solubility was 5 µg/mL (≈ 12.7 µM) in data set [2] (Acetonitrile); 33 µg/mL (≈ 83.8 µM) in data set [2] (Ethanol); 4 µg/mL (≈ 10.2 µM) in data set [2] (Isopropanol); 135 µg/mL (≈ 343 µM) in data set [2] (Methanol); roughly 100 µg/mL (≈ 254 µM) in data set [3] (pH 6.5 (product pH), read-out: Solubility in aqueous media); 79 µg/mL in data set [4] (saturated solution pH 3.6 (HCl salt), 8.1 (free base), solubility of free base).

For `N[C@@H]1CCCCN(c2c(F)cc3c(=O)c(C(=O)O)cn(C4CC4)c3c2Cl)C1` [besifloxacin, (R)-(+)-7-(3-amino-2,3,4,5,6,7-hexahydro-1H-azepin-1-yl)-1-cyclopropyl-8-chloro-6-fluoro-1,4-dihydro-4-oxoquinoline-3-carboxylic acid], in data set [3] (aqueous, pH 5.5-9.0), the “Solubility description of the zwitterion” value is recorded as “very slightly soluble”. Further, the “Solubility of the zwitterion” value in data set [3] (aqueous, pH range 5.5-9.0) is roughly 100 µg/mL. Further, the solubility in data set [3] (aqueous, pH 3, read-out: Maximum solubility as a function of pH) is roughly 10000 µg/mL (≈ 25400 µM); in data set [3] (aqueous, pH range 5.5-9.0, read-out: Solubility of the zwitterion), roughly 100 µg/mL (≈ 254 µM); in data set [5] (distilled water (pH adjusted with 1 N NaOH), assumed in fit of pH-solubility profile, read-out: Intrinsic solubility), 74 µg/mL (≈ 188 µM); in data set [5] (distilled water, pH adjusted with 1 N NaOH, fit of pH-solubility profile, total of zwitterionic and neutral species, read-out: Intrinsic solubility (So)) it was 74 µg/mL (≈ 188 µM). The pKa in data set [5] (read-out: pKa of the carboxylic acid group (pKa1)) was 5.65; in data set [5] (read-out: pKa of the primary amine (ammonium) group (pKa2)), 9.91.
